Data as given in patent US20050282743A1, “Molecular interactions in cells” (Arbor Vita Corporation, priority 2001, published 2005).
Ends that are not written are not given here. Peptide text beside a SMILES is read from it. * marks the point of attachment. Biotin = O=C1N[C@H]2[C@H](CS[C@H]2CCCCC(=O)*)N1

Key:
Assay in all cases: G' assay (10 uM PL peptide), results of TABLE 7 and TABLE 12
Type in all cases: binding
[1] = target: T1, PDZ protein (GST-PDZ fusion) (Homo sapiens, UniProt P57105); details: PDZ Outer Membrane, PDZ Domain 1
T1 construct: made in house; host or cells: E. coli (DH5alpha, BL21 or JM109)
T1 sequence (P57105 1-145): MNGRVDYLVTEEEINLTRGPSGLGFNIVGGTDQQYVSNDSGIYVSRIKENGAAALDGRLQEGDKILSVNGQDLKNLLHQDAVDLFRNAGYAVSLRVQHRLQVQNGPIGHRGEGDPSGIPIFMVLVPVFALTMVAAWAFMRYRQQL
Method in brief: (§1)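 Biotin-PL peptide (N-term label), 10 uM vs GST-PDZ; protein 5 ug/ml by default. A450 nm binned: 1 = 0-1, 2 = 1-2, 3 = 2-3, 4 = 3-4, 5 = >4 on >2 repeats, 0 = no binding.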

[2] = target: T2, PDZ protein (GST-PDZ fusion) (Homo sapiens, UniProt Q12959)
T2 construct: made in house; host or cells: E. coli (DH5alpha, BL21 or JM109)
T2 sequence (Q12959 whole entry, the tested form may be a part): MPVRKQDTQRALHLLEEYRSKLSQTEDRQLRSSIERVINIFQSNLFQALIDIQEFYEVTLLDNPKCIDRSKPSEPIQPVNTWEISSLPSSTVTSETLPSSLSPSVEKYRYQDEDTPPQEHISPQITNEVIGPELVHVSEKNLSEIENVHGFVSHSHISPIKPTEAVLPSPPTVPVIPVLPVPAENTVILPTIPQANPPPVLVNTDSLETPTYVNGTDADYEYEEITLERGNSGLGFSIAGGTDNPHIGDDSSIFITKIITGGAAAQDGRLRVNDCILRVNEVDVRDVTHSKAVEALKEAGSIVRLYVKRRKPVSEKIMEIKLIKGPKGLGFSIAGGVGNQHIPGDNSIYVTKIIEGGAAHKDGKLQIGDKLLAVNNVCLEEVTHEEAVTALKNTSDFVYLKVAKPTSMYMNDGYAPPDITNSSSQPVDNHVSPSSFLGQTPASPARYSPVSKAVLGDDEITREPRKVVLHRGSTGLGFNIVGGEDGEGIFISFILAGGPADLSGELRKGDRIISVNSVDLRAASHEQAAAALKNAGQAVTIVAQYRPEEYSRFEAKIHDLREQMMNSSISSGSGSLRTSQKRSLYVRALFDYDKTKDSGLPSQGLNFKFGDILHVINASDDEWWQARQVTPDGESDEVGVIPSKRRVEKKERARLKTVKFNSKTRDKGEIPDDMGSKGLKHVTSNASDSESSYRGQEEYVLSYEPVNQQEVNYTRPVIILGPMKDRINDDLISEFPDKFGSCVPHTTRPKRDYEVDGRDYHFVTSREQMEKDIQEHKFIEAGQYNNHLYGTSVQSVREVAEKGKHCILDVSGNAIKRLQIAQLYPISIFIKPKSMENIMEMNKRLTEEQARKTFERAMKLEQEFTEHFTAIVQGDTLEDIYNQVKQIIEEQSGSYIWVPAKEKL
Method in brief: as §1

[3] = target: T3, PDZ protein (GST-PDZ fusion) (Homo sapiens, UniProt Q15700)
T3 construct: made in house; host or cells: E. coli (DH5alpha, BL21 or JM109)
T3 sequence (Q15700 whole entry, the tested form may be a part): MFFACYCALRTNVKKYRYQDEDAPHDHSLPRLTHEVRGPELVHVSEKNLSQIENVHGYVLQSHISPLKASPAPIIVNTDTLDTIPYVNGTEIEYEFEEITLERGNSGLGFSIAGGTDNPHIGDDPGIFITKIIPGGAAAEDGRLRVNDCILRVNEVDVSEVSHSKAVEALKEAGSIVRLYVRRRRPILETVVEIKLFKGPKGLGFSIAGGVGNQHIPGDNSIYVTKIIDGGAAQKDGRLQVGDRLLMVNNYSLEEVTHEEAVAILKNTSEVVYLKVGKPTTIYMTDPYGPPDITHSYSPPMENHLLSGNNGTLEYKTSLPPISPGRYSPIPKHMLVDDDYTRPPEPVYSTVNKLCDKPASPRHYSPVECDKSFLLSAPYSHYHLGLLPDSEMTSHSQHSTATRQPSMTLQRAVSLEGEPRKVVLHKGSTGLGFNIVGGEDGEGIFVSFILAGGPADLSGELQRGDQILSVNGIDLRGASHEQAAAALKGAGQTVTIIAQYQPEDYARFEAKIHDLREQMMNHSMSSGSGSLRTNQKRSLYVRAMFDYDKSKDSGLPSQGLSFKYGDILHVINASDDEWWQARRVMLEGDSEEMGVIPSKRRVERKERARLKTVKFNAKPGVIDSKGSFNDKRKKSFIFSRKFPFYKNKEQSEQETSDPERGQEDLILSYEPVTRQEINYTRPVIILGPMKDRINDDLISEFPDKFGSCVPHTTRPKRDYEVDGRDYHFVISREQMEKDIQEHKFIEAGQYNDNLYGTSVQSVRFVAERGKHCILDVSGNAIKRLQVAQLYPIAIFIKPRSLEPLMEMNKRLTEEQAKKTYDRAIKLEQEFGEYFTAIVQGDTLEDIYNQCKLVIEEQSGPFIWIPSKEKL
Method in brief: as §1

[4] = target: T4, PDZ protein (GST-PDZ fusion) (Homo sapiens, UniProt O15018)
T4 construct: made in house; host or cells: E. coli (DH5alpha, BL21 or JM109)
Method in brief: as §1

[5] = target: T5, PDZ protein (GST-PDZ fusion) (Homo sapiens, UniProt P78352)
T5 construct: made in house; host or cells: E. coli (DH5alpha, BL21 or JM109)
T5 sequence (P78352 whole entry, the tested form may be a part): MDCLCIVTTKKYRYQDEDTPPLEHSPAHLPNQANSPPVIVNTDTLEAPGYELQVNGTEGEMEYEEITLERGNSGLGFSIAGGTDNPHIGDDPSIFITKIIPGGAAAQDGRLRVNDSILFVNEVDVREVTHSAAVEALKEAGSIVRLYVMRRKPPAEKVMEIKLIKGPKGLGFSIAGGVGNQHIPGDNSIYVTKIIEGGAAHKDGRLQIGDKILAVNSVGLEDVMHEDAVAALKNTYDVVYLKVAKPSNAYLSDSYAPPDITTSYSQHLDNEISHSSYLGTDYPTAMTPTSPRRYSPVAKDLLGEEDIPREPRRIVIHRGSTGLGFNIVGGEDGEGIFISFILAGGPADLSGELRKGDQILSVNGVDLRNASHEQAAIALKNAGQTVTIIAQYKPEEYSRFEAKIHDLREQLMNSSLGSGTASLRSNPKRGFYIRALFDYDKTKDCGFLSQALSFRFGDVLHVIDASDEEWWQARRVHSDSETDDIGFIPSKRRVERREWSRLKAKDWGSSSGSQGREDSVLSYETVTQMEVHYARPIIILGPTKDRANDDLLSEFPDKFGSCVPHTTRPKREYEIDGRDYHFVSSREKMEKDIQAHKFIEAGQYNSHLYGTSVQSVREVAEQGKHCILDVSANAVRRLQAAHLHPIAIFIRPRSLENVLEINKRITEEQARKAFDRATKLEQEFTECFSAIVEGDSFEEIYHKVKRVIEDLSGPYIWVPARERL
Method in brief: as §1

[6] = target: T6, PDZ protein (GST-PDZ fusion) (Homo sapiens, UniProt O14907); details: PDZ TIP1, PDZ Domain 1
T6 construct: made in house; host or cells: E. coli (DH5alpha, BL21 or JM109)
T6 sequence (O14907 1-124): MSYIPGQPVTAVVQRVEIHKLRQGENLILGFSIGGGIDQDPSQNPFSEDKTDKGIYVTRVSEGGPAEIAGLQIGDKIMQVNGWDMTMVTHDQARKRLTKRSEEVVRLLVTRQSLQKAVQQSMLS
Method in brief: as §1

[7] = target: T7, PDZ protein (GST-PDZ fusion) (Homo sapiens, UniProt Q14160); details: PDZ KIAA0147, PDZ Domain 1
T7 construct: made in house; host or cells: E. coli (DH5alpha, BL21 or JM109)
T7 sequence (Q14160 whole entry, the tested form may be a part): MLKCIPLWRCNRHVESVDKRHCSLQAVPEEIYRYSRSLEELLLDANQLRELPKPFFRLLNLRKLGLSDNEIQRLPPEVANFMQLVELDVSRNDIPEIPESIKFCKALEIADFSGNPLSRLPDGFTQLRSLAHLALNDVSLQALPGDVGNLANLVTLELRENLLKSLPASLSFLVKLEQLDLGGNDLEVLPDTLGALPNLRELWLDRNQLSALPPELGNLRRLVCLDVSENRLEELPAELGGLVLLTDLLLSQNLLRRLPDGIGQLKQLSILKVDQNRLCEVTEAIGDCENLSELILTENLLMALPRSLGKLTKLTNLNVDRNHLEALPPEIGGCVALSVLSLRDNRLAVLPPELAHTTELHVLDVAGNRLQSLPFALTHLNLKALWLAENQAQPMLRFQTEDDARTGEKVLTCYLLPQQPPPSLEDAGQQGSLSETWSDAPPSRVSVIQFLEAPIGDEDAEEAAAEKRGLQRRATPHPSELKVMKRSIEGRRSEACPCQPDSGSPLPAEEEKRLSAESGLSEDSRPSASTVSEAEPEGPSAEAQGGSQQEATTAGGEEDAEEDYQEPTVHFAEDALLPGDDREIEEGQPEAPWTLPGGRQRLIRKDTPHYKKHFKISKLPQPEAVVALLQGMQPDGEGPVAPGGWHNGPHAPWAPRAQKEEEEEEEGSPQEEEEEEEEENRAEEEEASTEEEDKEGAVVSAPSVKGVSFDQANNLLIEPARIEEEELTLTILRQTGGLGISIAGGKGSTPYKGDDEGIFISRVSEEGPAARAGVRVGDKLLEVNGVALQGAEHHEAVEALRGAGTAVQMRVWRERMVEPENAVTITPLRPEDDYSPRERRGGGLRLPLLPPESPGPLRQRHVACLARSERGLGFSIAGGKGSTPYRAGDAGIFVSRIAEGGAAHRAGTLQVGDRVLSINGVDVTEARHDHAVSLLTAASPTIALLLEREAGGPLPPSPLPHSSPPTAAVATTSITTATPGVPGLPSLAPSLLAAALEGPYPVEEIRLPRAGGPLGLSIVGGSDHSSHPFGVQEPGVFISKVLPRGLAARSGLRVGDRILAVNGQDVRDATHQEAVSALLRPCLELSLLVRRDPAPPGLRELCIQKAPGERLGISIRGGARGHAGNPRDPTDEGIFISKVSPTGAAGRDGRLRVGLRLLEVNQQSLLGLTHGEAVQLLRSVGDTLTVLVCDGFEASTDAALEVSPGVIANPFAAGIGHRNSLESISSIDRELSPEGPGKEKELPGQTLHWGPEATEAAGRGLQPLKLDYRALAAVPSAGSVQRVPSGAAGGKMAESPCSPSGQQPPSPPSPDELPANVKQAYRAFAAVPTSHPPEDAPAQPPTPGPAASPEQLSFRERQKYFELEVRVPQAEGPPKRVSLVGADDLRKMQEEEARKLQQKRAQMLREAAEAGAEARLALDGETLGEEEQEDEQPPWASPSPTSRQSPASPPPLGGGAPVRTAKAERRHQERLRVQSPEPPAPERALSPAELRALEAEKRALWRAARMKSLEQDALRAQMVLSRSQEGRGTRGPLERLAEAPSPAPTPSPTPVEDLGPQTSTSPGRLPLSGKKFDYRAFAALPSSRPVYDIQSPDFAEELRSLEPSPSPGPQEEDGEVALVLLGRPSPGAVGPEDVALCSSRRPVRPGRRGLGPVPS
Method in brief: as §1

| Molecule | Classification [1] | Classification ([2]; PDZ DLG1, PDZ Domain 2) | Classification ([3]; PDZ DLG2, PDZ Domain 2) | Classification ([4]; PDZ AIPC, PDZ Domain 1) | Classification ([2]; PDZ DLG1, PDZ Domain 1, 2) | Classification ([5]; PDZ PSD95, PDZ Domain 1, 2, 3) | Classification [6] | further results |
| --- | --- | --- | --- | --- | --- | --- | --- | --- |
| CC[C@H](C)[C@H](NC(=O)[C@H](CCC(=O)O)NC(=O)[C@H](CC(N)=O)NC(=O)[C@H](CCCNC(=N)N)NC(=O)[C@H](Cc1ccccc1)NC(=O)[C@H](CC(N)=O)NC(=O)[C@H](CO)NC(=O)[C@H](CC(N)=O)NC(=O)[C@H](CCC(=O)O)NC(=O)[C@H](CO)NC(=O)[C@H](CC(=O)O)NC(=O)[C@H](CO)NC(=O)[C@@H](NC(=O)[C@@H](NC(=O)[C@H](CC(=O)O)NC(=O)[C@H](CCCCN)NC(=O)CCCC[C@@H]1SC[C@@H]2NC(=O)N[C@@H]21)[C@@H](C)CC)[C@@H](C)O)C(=O)N[C@@H](CCC(N)=O)C(=O)N[C@@H](CO)C(=O)N[C@@H](CC(C)C)C(=O)N[C@H](C(=O)O)C(C)C [CD95] (Biotin-KDITSDSENSNFRNEIQSLV-OH; C-terminus assumed) | 1 (A450 nm 0-1) | 1 (A450 nm 0-1) | 1 (A450 nm 0-1) | 1 (A450 nm 0-1) |  |  |  |  |
| CC[C@H](C)[C@H](NC(=O)[C@H](CO)NC(=O)[C@H](CCC(=O)O)NC(=O)[C@H](Cc1ccc(O)cc1)NC(=O)[C@H](CC(=O)O)NC(=O)[C@H](CC(N)=O)NC(=O)[C@H](CCC(=O)O)NC(=O)[C@H](CCCCN)NC(=O)CCCC[C@@H]1SC[C@@H]2NC(=O)N[C@@H]21)C(=O)N[C@@H](CO)C(=O)N[C@@H](CC(=O)O)C(=O)N[C@@H](CC(C)C)C(=O)N[C@@H](CCC(N)=O)C(=O)N[C@@H](CCC(N)=O)C(=O)NCC(=O)N[C@@H](CCCNC(=N)N)C(=O)N[C@@H](CC(=O)O)C(=O)N[C@H](C(=O)N[C@H](C(=O)N[C@@H](CCCNC(=N)N)C(=O)N[C@@H](CC(C)C)C(=O)O)[C@@H](C)O)[C@@H](C)CC [PAG] (Biotin-KENDYESISDLQQGRDITRL-OH; C-terminus assumed) | 2 (A450 nm 1-2) |  |  |  |  |  |  |  |
| CC[C@H](C)[C@H](NC(=O)[C@H](CCC(=O)O)NC(=O)[C@H](CO)NC(=O)[C@H](CCC(=O)O)NC(=O)[C@H](CCCNC(=N)N)NC(=O)[C@H](CCCNC(=N)N)NC(=O)[C@H](CC(C)C)NC(=O)[C@@H]1CCCN1C(=O)[C@H](CCCNC(=N)N)NC(=O)[C@@H]1CCCN1C(=O)[C@H](CCC(=O)O)NC(=O)[C@H](CC(C)C)NC(=O)[C@@H]1CCCN1C(=O)[C@@H](NC(=O)[C@H](CO)NC(=O)[C@H](C)NC(=O)[C@H](CCC(N)=O)NC(=O)[C@H](CC(N)=O)NC(=O)[C@H](Cc1c[nH]cn1)NC(=O)[C@H](CC(C)C)NC(=O)CCCC[C@@H]1SC[C@@H]2NC(=O)N[C@@H]21)C(C)C)C(=O)O [Kir2.1 (inwardly rect. K+ channel)] (Biotin-LHNQASVPLEPRPLRRESEI-OH; C-terminus assumed) | 4 (A450 nm 3-4) | 1 (A450 nm 0-1) | 1 (A450 nm 0-1) |  | 2 (A450 nm 1-2) | 2 (A450 nm 1-2) |  |  |
| CC[C@H](C)[C@H](NC(=O)[C@H](Cc1c[nH]cn1)NC(=O)[C@H](C)NC(=O)[C@H](C)NC(=O)[C@H](CO)NC(=O)[C@@H]1CCCN1C(=O)[C@H](CCCNC(=N)N)NC(=O)[C@H](CC(=O)O)NC(=O)[C@H](CCCCN)NC(=O)[C@@H]1CCCN1C(=O)[C@H](CC(=O)O)NC(=O)[C@H](CCC(=O)O)NC(=O)CCCC[C@@H]1SC[C@@H]2NC(=O)N[C@@H]21)C(=O)N[C@H](C(=O)N[C@@H](CCC(=O)O)C(=O)N[C@@H](C)C(=O)N[C@@H](CC(C)C)C(=O)N[C@@H](CCC(=O)O)C(=O)N[C@H](C(=O)N[C@@H](CC(=O)O)C(=O)N[C@H](C(=O)O)C(C)C)[C@@H](C)O)C(C)C [PDZ-binding kinase (PBK)] (Biotin-EDPKDRPSAAHIVEALETDV-OH; C-terminus assumed) |  |  |  |  | 1 (A450 nm 0-1) | 1 (A450 nm 0-1) | 1 (A450 nm 0-1) |  |
| CC[C@H](C)[C@H](NC(=O)[C@H](CC(=O)O)NC(=O)[C@H](CCC(=O)O)NC(=O)[C@H](CCCNC(=N)N)NC(=O)[C@@H](NC(=O)CCCC[C@@H]1SC[C@@H]2NC(=O)N[C@@H]21)[C@@H](C)O)C(=O)N[C@@H](Cc1ccc(O)cc1)C(=O)N[C@H](C(=O)N[C@@H](CC(N)=O)C(=O)N[C@@H](Cc1ccc(O)cc1)C(=O)N1CCC[C@H]1C(=O)N[C@H](C(=O)N[C@@H](Cc1ccccc1)C(=O)N[C@@H](CO)C(=O)N[C@@H](CCCNC(=N)N)C(=O)N[C@@H](CCCNC(=N)N)C(=O)N1CCC[C@H]1C(=O)N[C@@H](CCCCN)C(=O)N[C@H](C(=O)N[C@@H](CCCNC(=N)N)C(=O)N[C@H](C(=O)O)C(C)C)[C@@H](C)O)[C@@H](C)O)C(C)C [DNAM-1] (Biotin-TREDIYVNYPTFSRRPKTRV-OH; C-terminus assumed) | 1 (A450 nm 0-1) |  |  |  |  |  | 1 (A450 nm 0-1) |  |
| GGGGGSGGGGGSGIESVKI [GLUR2 (glutamate receptor 2-modified)] |  | 1 (A450 nm 0-1) | 1 (A450 nm 0-1) | 2 (A450 nm 1-2) | 2 (A450 nm 1-2) | 2 (A450 nm 1-2) |  | Classification [7]: 1 (A450 nm 0-1) |
| APC—adenomatous polyposis coli protein (ESSGTQSPKRHSGSYLVTSV) | 2 (A450 nm 1-2) |  |  |  | 5 (A450 nm of 4 more than 2× repeated) | 5 (A450 nm of 4 more than 2× repeated) | 3 (A450 nm 2-3) | Classification [7]: 1 (A450 nm 0-1) |
| CC(C)C[C@H](NC(=O)CNC(=O)[C@@H](NC(=O)[C@H](CO)NC(=O)[C@H](CC(N)=O)NC(=O)[C@H](Cc1ccccc1)NC(=O)CNC(=O)[C@H](C)NC(=O)[C@H](C)NC(=O)[C@H](Cc1ccccc1)NC(=O)[C@@H](NC(=O)CCCC[C@@H]1SC[C@@H]2NC(=O)N[C@@H]21)[C@@H](C)O)[C@@H](C)O)C(=O)N1CCC[C@H]1C(=O)N[C@@H](Cc1c[nH]cn1)C(=O)N[C@@H](CO)C(=O)N[C@H](C(=O)N[C@H](C(=O)N[C@@H](CCCNC(=N)N)C(=O)N[C@H](C(=O)O)C(C)C)[C@@H](C)O)[C@@H](C)O [Neuroligin] (Biotin-TFAAGFNSTGLPHSTTRV-OH; C-terminus assumed) |  |  |  |  | 2 (A450 nm 1-2) | 2 (A450 nm 1-2) | 1 (A450 nm 0-1) |  |
| ELLQFCRTPNPALKNGQYWV (Biotin-ELLQFCRTPNPALKNGQYWV) | 1 (A450 nm 0-1) |  |  | 5 (A450 nm of 4 more than 2× repeated) |  |  | 1 (A450 nm 0-1) | Classification ([4]; PDZ KIAA0300, PDZ Domain 1): 2 (A450 nm 1-2) |
| CC[C@H](C)[C@H](NC(=O)[C@H](CCC(N)=O)NC(=O)[C@@H](NC(=O)[C@H](Cc1c[nH]cn1)NC(=O)[C@H](CCC(N)=O)NC(=O)[C@H](CC(=O)O)NC(=O)[C@H](CCC(=O)O)NC(=O)[C@H](CC(=O)O)NC(=O)[C@H](Cc1ccccc1)NC(=O)[C@@H]1CCCN1C(=O)[C@H](CCC(=O)O)NC(=O)[C@H](CC(N)=O)NC(=O)[C@H](CCC(=O)O)NC(=O)[C@@H]1CCCN1C(=O)[C@H](CC(=O)O)NC(=O)[C@H](CO)NC(=O)[C@H](CC(=O)O)NC(=O)CCCC[C@@H]1SC[C@@H]2NC(=O)N[C@@H]21)[C@@H](C)O)C(=O)N[C@H](C(=O)N[C@@H](CCCCN)C(=O)N[C@H](C(=O)O)C(C)C)[C@@H](C)O [PTEN] |  |  |  | 1 (A450 nm 0-1) |  |  | 2 (A450 nm 1-2) |  |
| CC[C@H](C)[C@H](NC(=O)[C@H](CO)NC(=O)[C@@H](NC(=O)[C@H](Cc1ccccc1)NC(=O)[C@H](CO)NC(=O)CCCC[C@@H]1SC[C@@H]2NC(=O)N[C@@H]21)[C@@H](C)O)C(=O)N[C@@H](CC(C)C)C(=O)N[C@H](C(=O)N[C@@H](CS)C(=O)N[C@@H](Cc1c[nH]cn1)C(=O)N[C@@H](CCC(N)=O)C(=O)N[C@@H](CCCNC(=N)N)C(=O)N[C@@H](CCCNC(=N)N)C(=O)N[C@H](C(=O)N[C@@H](CCC(N)=O)C(=O)N[C@@H](CCCNC(=N)N)C(=O)N[C@@H](CCCCN)C(=O)N[C@@H](CCC(=O)O)C(=O)N[C@H](C(=O)N[C@H](C(=O)N[C@@H](C)C(=O)O)C(C)C)[C@@H](C)O)[C@@H](C)O)[C@@H](C)O [GluR5-2 (rat)] |  | 2 (A450 nm 1-2) | 1 (A450 nm 0-1) |  | 5 (A450 nm of 4 more than 2× repeated) | 5 (A450 nm of 4 more than 2× repeated) |  | Classification ([2]; PDZ DLG1, PDZ Domain 1): 2 (A450 nm 1-2); Classification ([2]; PDZ DLG1, PDZ Domain 3): 1 (A450 nm 0-1); Classification [7]: 2 (A450 nm 1-2); Classification ([5]; PDZ PSD95, PDZ Domain 1): 3 (A450 nm 2-3); Classification ([5]; PDZ PSD95, PDZ Domain 3): 5 (A450 nm of 4 more than 2× repeated); Classification ([3]; PDZ DLG2, PDZ Domain 1): 1 (A450 nm 0-1) |
| ISGTPTSTMVHGMTSSSSVV (Biotin-ISGTPTSTMVHGMTSSSSVV) [Clasp-2] | 1 (A450 nm 0-1) | 1 (A450 nm 0-1) |  | 1 (A450 nm 0-1) |  |  |  | Classification ([2]; PDZ DLG1, PDZ Domain 1): 1 (A450 nm 0-1); Classification ([5]; PDZ PSD95, PDZ Domain 1): 1 (A450 nm 0-1) |
